From patent US20180271863A1, “TARGETING P2 PURINERGIC RECEPTORS TO TREAT HEPATOCELLULAR CARCINOMA (HCC)” (Baylor College of Medicine, priority 2015, published 2018)

How the values were obtained:
Assay type in all cases: cell-based, human
SNU-387 cells [1] = assay: Western blotting of cyclin D3 in SNU-387 cells; settings: ATP 24 hours, serum-free
Method: HCC cells (Huh7, Hep3B, SNU-387, and PLC/PRF/5) maintained in serum-free conditions were treated with ATP for 24 hours and total protein extracts were analyzed by Western blotting for cyclin D3 expression. The α-tubulin was utilized as the protein loading control. Data represents mean±SD, n=3-6, *p<0.05 vs untreated (un).
Normal human primary hepatocytes isolated from healthy adults (no known history of HCC) in suspension or freshly-frozen prior to shipment (Cryoport Systems, CA) were purchased from Triangle Research Labs, NC. […]
(§1) Total protein extracts were obtained by homogenizing cells in total lysis buffer (50 mM Tris-HCl, pH 7.5, 0.5 M NaCl, 2 mM EGTA, 2 mM EDTA, 1.0% Triton X-100, 0.25% Deoxycholate, 1 m/ml pepstatin, 1.0 m/ml leupeptin, 1.0 m/ml aprotinin, 1.0 mM phenylmethylsulfonyl fluoride, 1.0 mM Dithiothreitol, 2.0 mM activated Na3VO4, and 2.0 mM NaF) and centrifuging at 14,000 rpm for 10 min (4° C.). Equal amounts of total proteins as determined by BCA protein Assay (Pierce, Rockford, Ill.) were analyzed by Western blotting. […]

Huh7 cells [2] = assay: MTT assay of cell proliferation and viability, Huh7; settings: ATP 100 μM, 18 h
Method: (§2) Normal human primary hepatocytes isolated from healthy adults (no known history of HCC) in suspension or freshly-frozen prior to shipment (Cryoport Systems, CA) were purchased from Triangle Research Labs, NC. Fresh hepatocytes were plated on collagen-coated tissue culture plates or glass coverslips in Williams E complete media with additives (10% fetal bovine serum, 2 mM glutamine, […] insulin, 4 ng/ml glucagon, […] transferrin, 2.5 ng/ml sodium selenite, 10,000 U/ml penicillin, […] streptomycin, 50 g/ml gentamycin) for 3 h to ensure hepatocyte adherence to plates. Subsequently, hepatocytes were maintained in Williams E minimal media free from serum and growth factors for 24 h prior to treatment. Human hepatocellular carcinoma derived Huh7, and Hep3B, were cultured in Minimum Essential Medium Eagle (MEM); SNU-387 was cultured in Roswell Park Memorial Institute (RPMI) medium and PLC/PRF/5 cultured in Dulbecco's Modified Eagle's medium (DMEM). All maintenance culture media were supplemented with 10% fetal bovine serum (FBS), L-Glutamine (2 mM), penicillin (100 units/ml) and streptomycin ([…]) at 37° C. and 5% CO2. […]
(§3) Cell viability was determined using the 3-(4, 5-dimethylthiazol-2-yl)-2,5-diphenyltetrazolium (MTT, Sigma) assays. […] After shaking the plates for 30 min, the absorbance at 570 nm was measured (background subtraction at […]).

Hep3B cells = assay: MTT assay of cell proliferation and viability, Hep3B; settings: ATP 100 μM, 18 h
Method: as §2, §3

PLC/PRF/5 cells = assay: BrdU incorporation (proliferation) in PLC/PRF/5 cells; settings: SFM 24 hours, ATP 24 hours
Method: (§4) To determine whether P2 purinergic receptor activation influences HCC cell proliferation, BrdU incorporation was assessed in HCC cells maintained in SFM for 24 hours and treated with ATP for 24 hours. ATP treatment alone was sufficient to induce proliferation in each of these cell lines (Huh7, 34%; Hep3B, 46%; SNU-387, 47% and PLC/PRF/5, 24%), identifying nucleotides as liver cancer cell mitogens (FIG. 7A).
(§5) Normal human primary hepatocytes isolated from healthy adults (no known history of HCC) in suspension or freshly-frozen prior to shipment (Cryoport Systems, CA) were purchased from Triangle Research Labs, NC. Fresh hepatocytes were plated on collagen-coated tissue culture plates or glass coverslips in Williams E complete media with additives (10% fetal bovine serum, 2 mM glutamine, […] insulin, 4 ng/ml glucagon, […] transferrin, 2.5 ng/ml sodium selenite, 10,000 U/ml penicillin, […] streptomycin, 50 g/ml gentamycin) for 3 h to ensure hepatocyte adherence to plates. […]
(§6) Formalin-fixed and paraffin embedded liver sections from HCC patients were analyzed by immunohistochemistry with anti-P2X3 antibody (Abcam, Cambridge, Mass.). […] BrdU positive cells were counted and expressed as a percentage of the total number of cells in ten randomly selected high-power fields (20×) per coverslips.

SNU-387 cells [3] = assay: MTT assay of cell proliferation and viability, SNU-387; settings: ATP 100 μM, 18 h
Method: as §2, §3

SNU-387 cells [4] = assay: BrdU incorporation (proliferation) in SNU-387 cells; settings: SFM 24 hours, ATP 24 hours
Method: as §4, §5, §6

Huh7 cells [5] = assay: Western blotting for JNK phosphorylation in Huh7 cells; settings: 100 μM, 15 min
Method: Applicants have previously shown that extracellular nucleotide-mediated activation of JNK signaling induces cell-cycle progression and proliferation of rat primary hepatocytes in vitro. To determine whether extracellular nucleotides induce JNK signaling in transformed hepatocytes, Huh7 cells were treated with nucleotides for 5, 15 and 30 min and total protein extracts were analyzed by Western blotting for JNK phosphorylation (Ser^Thr/Tyi). ATPγS treatment alone was sufficient to induce JNK phosphorylation as early as 15 min (1.7 fold) (FIG. 10A). […] Total protein extracts were obtained by homogenizing cells in total lysis buffer (50 mM Tris-HCl, pH 7.5, 0.5 M NaCl, 2 mM EGTA, 2 mM EDTA, 1.0% Triton X-100, 0.25% Deoxycholate, 1 m/ml pepstatin, 1.0 m/ml leupeptin, 1.0 m/ml aprotinin, 1.0 mM phenylmethylsulfonyl fluoride, 1.0 mM Dithiothreitol, 2.0 mM activated Na3VO4, and 2.0 mM NaF) and centrifuging at 14,000 rpm for 10 min (4° C.). Equal amounts of total proteins as determined by BCA protein Assay (Pierce, Rockford, Ill.) were analyzed by Western blotting. Blots were probed with antibody specific for a-tubulin or GAPDH to ensure equal loading of proteins in each lane.

Huh7 cells [6] = assay: Western blotting for cleaved PARP (apoptosis marker); settings: antagonist treatment alone
Description: Arrows point to BrdU-positive cells, expressed as a percentage of total cells. Data represents mean±SEM, n=3-6, *p<0.05 vs. untreated. […] Data represents mean±SD, n=3, *p<0.05 vs. untreated, #p<0.05.
Applicants' observations that P2X3 agonist 2-MeSATP treatment alone was sufficient to induce cyclin D3 expression (1.9 fold) and pre-treatment with an alternative P2X3 antagonist (A317491) attenuated ATP induced cyclin D3 expression in Huh7 cells further validated the role of P2X3 purinergic receptor activation in the induction of cell-cycle progression in HCC cells (FIGS. 11C-D). Furthermore, P2X3 antagonist treatment alone was sufficient to reduce the baseline BrdU-positive cells and cyclin protein expression in serum-free conditions, implicating P2X3 activation as a necessary facilitator of Huh7 cell cycle progression (FIGS. 11A-B).
as §1

Nc1ncnc2c1ncn2[C@@H]1O[C@H](COP(=O)(O)OP(=O)(O)OP(=O)(O)O)[C@@H](O)[C@H]1O [ATP]
cyclin D3 protein expression (SNU-387 cells [1]): 1.6 fold | increase in cell proliferation and viability (MTT) (Huh7 cells [2]): 65% | increase in cell proliferation and viability (MTT) (Hep3B cells): 81% | proliferation (BrdU incorporation) induced by ATP (PLC/PRF/5 cells): 24% | increase in cell proliferation and viability (MTT) (SNU-387 cells [3]): 90% | proliferation (BrdU incorporation) induced by ATP (SNU-387 cells [4]): 47%

Nc1ncnc2c1ncn2[C@@H]1O[C@H](COP(=O)(O)OP(=O)(O)OP(O)(O)=S)[C@@H](O)[C@H]1O [ATPγS]
JNK phosphorylation (Huh7 cells [5]): 1.7 fold

COc1cc(C(C)C)c(Oc2cnc(N)nc2N)cc1I [AF-353]
cleaved PARP protein expression (marker of apoptosis) (Huh7 cells [6]): increased
